Reference: patent US9309242B2, “Substituted pyrido[2,3-b]pyrazines as FGFR kinase inhibitors” (priority 2011, dated 2016)

Columns and labels:
[1] = target: T1, Ba/F3-FGFR3-transfected cells (Homo sapiens, UniProt P22607); experiment: Ba/F3-FGFR3 (minus IL3) cellular proliferation assay, Alamar Blue; assay type: cell-based
T1 construct: BAF3-FGFR3 (MIN IL3) pIC50; other: minus IL3
How it was run: (§1)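 Ba/F3 cells transfected with FGFR3 were seeded at 20000 cells/well in phenol red-free RPMI-1640 with 10% FBS over compound in DMSO and kept 24 hours at 37° C, 5% CO2. Alamar Blue (resazurin) was then added for 4 hours and fluorescence read at ex 540/em 590 nm. The counterscreen repeated this with 10 ng/ml murine IL3.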

FGFR4 (h) = FGFR4 (h) (Homo sapiens, UniProt P22455); experiment: FGFR4 (enzymatic assay), TR-FRET; assay type: biochemical; conditions: FGFR 4 pIC50, enzymatic assay
Sequence of FGFR4 (h) (P22455 22-802): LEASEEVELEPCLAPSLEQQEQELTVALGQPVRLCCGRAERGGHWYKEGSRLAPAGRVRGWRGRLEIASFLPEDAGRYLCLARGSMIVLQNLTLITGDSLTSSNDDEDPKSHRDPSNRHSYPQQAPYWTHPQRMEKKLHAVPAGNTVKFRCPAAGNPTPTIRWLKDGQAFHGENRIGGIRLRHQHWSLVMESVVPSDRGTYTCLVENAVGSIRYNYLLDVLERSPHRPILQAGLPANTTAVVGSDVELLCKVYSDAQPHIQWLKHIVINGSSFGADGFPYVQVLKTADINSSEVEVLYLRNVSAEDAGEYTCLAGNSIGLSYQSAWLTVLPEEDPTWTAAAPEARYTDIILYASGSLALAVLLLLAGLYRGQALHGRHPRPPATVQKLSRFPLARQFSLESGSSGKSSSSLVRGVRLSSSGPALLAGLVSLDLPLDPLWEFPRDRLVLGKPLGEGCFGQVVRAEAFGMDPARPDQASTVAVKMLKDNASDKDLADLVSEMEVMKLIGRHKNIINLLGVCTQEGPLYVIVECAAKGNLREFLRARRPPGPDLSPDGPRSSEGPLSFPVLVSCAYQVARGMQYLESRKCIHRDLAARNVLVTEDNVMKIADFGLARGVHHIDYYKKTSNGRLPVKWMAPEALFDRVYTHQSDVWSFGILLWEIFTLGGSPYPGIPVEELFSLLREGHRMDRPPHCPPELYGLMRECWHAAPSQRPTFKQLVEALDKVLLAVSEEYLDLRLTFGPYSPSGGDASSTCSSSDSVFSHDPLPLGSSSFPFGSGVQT

[2] = target: T2, Ba/F3-FGFR1-transfected cells (Homo sapiens, UniProt P11362); experiment: Ba/F3-FGFR1 (minus IL3) cellular proliferation assay, Alamar Blue; assay type: cell-based
T2 construct: BAF3-FGFR1 (MIN IL3) pIC50; other: minus IL3
How it was run: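 Ba/F3 cells transfected with FGFR1 (20000 cells/well) were plated onto compound in phenol red-free RPMI-1640 with 10% FBS, 2 mM L-glutamine and gentamycin, then kept 24 h at 37 °C, 5% CO2. Alamar Blue (resazurin) was added for 4 h and fluorescence read at ex 540/em 590 nm.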

[3] = target: Ba/F3-FGFR4-transfected cells (Homo sapiens, UniProt P22455); experiment: Ba/F3-FGFR4 cellular proliferation assay, Alamar Blue; assay type: cell-based
Sequence of Ba/F3-FGFR4-transfected cells (P22455 whole entry, change not shown): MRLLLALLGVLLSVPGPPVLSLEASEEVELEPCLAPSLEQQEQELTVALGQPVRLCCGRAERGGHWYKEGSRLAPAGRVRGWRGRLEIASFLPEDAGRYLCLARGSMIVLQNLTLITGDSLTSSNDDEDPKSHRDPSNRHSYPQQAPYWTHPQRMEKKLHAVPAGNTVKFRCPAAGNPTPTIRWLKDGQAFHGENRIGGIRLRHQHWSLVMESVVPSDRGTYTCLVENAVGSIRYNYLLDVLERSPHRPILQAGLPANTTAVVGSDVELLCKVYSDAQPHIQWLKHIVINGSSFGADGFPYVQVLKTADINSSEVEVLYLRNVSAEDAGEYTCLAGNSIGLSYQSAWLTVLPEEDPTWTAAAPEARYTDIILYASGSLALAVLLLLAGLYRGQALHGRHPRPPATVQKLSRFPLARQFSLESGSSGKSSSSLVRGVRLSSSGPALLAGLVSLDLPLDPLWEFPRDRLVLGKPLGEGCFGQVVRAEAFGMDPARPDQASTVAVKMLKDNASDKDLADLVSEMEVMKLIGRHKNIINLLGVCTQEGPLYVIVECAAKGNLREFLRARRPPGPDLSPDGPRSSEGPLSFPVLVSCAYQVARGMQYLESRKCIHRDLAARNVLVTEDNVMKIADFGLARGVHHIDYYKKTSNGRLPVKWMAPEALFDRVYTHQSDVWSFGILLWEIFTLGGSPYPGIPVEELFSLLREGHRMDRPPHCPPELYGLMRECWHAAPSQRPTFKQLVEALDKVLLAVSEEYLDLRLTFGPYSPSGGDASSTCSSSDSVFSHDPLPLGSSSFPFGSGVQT
How it was run: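 Here, cells seeded at 20000 per well were treated 24 hours with compound, then given a 4-hour Alamar Blue incubation at 37° C before RFU measurement at ex. 540 nm and em. 590 nm.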

[4] = target: T3, Ba/F3-KDR-transfected cells (Homo sapiens, UniProt P35968); experiment: Ba/F3-KDR (minus IL3) cellular proliferation assay, Alamar Blue; assay type: cell-based
T3 construct: BAF3-KDR (MIN IL3) pIC50; other: minus IL3
T3 sequence (P35968 whole entry, change not shown): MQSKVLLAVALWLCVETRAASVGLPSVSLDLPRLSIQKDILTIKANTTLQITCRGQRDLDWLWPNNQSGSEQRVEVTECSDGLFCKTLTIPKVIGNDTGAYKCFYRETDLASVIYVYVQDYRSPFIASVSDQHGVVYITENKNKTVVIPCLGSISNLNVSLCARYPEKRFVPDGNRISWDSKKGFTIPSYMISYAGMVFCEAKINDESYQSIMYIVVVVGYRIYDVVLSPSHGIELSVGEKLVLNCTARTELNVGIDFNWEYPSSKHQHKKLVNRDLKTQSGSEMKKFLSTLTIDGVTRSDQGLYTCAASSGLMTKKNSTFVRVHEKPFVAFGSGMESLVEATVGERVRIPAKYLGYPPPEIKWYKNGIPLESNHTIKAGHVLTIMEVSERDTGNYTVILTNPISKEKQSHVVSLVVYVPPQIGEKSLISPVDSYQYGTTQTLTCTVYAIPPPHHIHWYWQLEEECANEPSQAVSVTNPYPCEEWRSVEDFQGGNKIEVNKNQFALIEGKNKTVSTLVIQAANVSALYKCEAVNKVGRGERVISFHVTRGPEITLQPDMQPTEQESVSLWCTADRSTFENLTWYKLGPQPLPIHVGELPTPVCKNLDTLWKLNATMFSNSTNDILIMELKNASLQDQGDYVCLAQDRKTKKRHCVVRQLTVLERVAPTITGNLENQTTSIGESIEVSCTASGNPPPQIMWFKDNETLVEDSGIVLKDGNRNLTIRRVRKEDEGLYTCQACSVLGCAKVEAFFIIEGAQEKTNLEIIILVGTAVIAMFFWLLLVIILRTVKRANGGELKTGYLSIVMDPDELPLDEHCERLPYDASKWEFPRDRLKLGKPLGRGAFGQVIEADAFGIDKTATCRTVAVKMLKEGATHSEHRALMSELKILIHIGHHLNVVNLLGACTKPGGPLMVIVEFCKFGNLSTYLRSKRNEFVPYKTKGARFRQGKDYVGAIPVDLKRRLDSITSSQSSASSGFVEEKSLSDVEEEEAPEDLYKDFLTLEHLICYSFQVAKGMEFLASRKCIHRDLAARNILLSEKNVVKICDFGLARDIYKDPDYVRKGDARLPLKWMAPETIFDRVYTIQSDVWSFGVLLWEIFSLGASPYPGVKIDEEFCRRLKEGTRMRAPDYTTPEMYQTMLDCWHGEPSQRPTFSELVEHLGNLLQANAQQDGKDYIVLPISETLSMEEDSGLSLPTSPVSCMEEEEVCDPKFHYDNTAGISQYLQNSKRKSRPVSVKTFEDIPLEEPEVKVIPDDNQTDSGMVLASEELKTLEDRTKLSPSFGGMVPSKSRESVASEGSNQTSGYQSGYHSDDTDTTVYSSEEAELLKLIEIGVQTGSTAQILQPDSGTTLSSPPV
How it was run: (§2)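 Cells grown with test compound at 37° C and 5% CO2 for 24 hours were given a resazurin/ferricyanide/ferrocyanide reagent for 4 hours before fluorescence (540/590 nm) was recorded.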

FGFR3 (h) = FGFR3 (h) (Homo sapiens, UniProt P22607); experiment: FGFR3 (enzymatic assay), TR-FRET; assay type: biochemical; conditions: read-out: FGFR 3 pIC50 (converted)
Sequence of FGFR3 (h) (P22607 23-806): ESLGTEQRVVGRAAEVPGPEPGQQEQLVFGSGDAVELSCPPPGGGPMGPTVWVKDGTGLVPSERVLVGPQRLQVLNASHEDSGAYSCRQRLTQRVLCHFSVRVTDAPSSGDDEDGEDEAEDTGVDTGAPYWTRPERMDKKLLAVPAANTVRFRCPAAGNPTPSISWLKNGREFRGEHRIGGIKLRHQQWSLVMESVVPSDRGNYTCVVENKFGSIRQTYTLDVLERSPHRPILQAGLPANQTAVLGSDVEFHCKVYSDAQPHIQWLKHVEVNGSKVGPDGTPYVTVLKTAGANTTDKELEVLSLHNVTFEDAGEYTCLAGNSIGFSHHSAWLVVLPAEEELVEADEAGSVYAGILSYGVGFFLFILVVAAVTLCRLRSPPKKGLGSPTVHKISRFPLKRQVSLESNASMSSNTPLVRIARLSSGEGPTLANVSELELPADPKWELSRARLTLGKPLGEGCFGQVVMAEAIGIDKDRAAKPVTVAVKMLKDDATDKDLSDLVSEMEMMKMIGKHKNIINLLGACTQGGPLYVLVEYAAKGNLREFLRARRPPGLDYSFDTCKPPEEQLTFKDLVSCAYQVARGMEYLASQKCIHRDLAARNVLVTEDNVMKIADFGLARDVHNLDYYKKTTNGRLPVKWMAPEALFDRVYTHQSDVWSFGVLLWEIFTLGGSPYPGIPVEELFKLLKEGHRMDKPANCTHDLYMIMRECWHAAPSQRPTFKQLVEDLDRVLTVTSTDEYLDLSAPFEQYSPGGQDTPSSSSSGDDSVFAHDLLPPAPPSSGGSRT
Text: Time-Resolved Fluorescence Resonance Energy Transfer (TR-FRET) signal (ex340 nm.

[5] = system: Ba/F3-KDR-transfected cells; experiment: Ba/F3-KDR (plus IL3) cellular proliferation assay, counterscreen with 10 ng/ml murine IL3; assay type: cell-based; conditions: plus IL3 (10 ng/ml murine IL3, counterscreen); read-out: BAF3-KDR (PLUS IL3) pIC50 (converted)
How it was run: as §2

FGFR1 (h) = FGFR1 (h) (Homo sapiens, UniProt P11362); experiment: FGFR1 (enzymatic assay), TR-FRET; assay type: biochemical; conditions: read-out: FGFR 1 pIC50 (converted)
Sequence of FGFR1 (h) (P11362 22-822): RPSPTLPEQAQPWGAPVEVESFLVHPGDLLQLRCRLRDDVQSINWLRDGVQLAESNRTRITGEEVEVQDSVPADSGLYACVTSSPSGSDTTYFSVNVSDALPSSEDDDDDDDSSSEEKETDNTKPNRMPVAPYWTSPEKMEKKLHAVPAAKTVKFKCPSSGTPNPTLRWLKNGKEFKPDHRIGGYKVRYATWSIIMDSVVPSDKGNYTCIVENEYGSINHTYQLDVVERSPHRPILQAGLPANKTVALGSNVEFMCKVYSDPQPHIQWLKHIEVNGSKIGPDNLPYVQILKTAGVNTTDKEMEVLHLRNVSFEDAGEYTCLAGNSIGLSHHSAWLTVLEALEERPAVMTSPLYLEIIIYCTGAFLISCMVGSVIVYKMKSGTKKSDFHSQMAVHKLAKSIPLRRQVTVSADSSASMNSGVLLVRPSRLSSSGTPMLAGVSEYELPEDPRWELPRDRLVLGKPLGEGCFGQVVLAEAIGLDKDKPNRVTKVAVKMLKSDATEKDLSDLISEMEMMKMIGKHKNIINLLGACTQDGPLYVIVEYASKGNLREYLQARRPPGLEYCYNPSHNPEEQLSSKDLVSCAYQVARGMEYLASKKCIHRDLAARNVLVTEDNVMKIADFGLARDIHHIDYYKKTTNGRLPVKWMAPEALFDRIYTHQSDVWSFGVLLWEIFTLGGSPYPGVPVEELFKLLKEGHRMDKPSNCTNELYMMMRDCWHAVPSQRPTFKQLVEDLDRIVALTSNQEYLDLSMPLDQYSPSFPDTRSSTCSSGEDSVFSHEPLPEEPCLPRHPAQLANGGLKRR

[6] = system: Ba/F3-FGFR3-transfected cells; experiment: Ba/F3-FGFR3 (plus IL3) cellular proliferation assay, counterscreen with 10 ng/ml murine IL3; assay type: cell-based; conditions: plus IL3 (10 ng/ml murine IL3, counterscreen); read-out: BAF3-FGFR3 (PLUS IL3) pIC50 (converted)
How it was run: as §1

Row | Compound | BAF3-FGFR3 (MIN IL3) pIC50 [1] | IC50 (FGFR4 (h)) [nM] | BAF3-FGFR1 (MIN IL3) pIC50 [2] | BAF3-FGFR4 pIC50 [3] | BAF3-KDR (MIN IL3) pIC50 [4] | IC50 (FGFR3 (h)) [nM] | IC50 [5] [nM] | IC50 (FGFR1 (h)) [nM] | IC50 [6] [nM]
1 | COc1cc(OC)cc(N(Cc2n[nH]c(=O)o2)c2ccc3ncc(-c4cnn(C)c4)nc3n2)c1 [Compound 229] | 6.05 | 22.4 | 5.97 | 5.45 | <5 | 4.07 | > 10000 | 4.9 | > 10000
2 | COc1cc(OC)c(F)c(N(CC(=O)NCCO)c2ccc3ncc(-c4cnn(C)c4)nc3n2)c1 [Compound 230] | 6.18 | 42.7 | 6.09 | 5.73 | 5.04 | 7.94 | > 10000 | 7.59 | > 10000
3 | COc1cc(OC)c(F)c(N(CC(=O)O)c2ccc3ncc(-c4cnn(C)c4)nc3n2)c1 [Compound 231] | 5.75 | 17.8 | 5.27 | 5.02 | <5 | 3.98 | > 10000 | 4.79 | > 10000
4 | COc1cc(OC)c(F)c(N(Cc2nc(CO)c[nH]2)c2ccc3ncc(-c4cnn(C)c4)nc3n2)c1 [Compound 232] | 7.81 | 1.86 | 7.45 | 6.96 | 5.83 | 1.29 | > 10000 | 0.813 | > 10000
5 | COc1cc(OC)c(F)c(N(CCO)c2ccc3ncc(-c4cnn(CCO)c4)nc3n2)c1 [Compound 233] | 7.40 | 2.88 | 7.49 | 6.91 | 5.90 | 0.776 | > 10000 | 0.759 | > 10000
6 | COc1cc(OC)c(F)c(N(Cc2nc(Br)c[nH]2)c2ccc3ncc(-c4cnn(C)c4)nc3n2)c1 [Compound 238] | ~8.45 | 1.12 | ~8.32 | 8.06 | 6.46 | 1.17 | > 10000 | 0.479 | > 10000
7 | COc1cc(OC)c(F)c(N(Cc2ncc[nH]2)c2ccc3ncc(-c4cnn(CC(C)(C)O)c4)nc3n2)c1 [Compound 240] | ~8.52 | 1.91 | 8.57 | 7.87 | 6.89 | 1.82 | > 10000 | 0.912 | > 10000
8 | COc1cc(OC)c(F)c(N(CCNC(C)=O)c2ccc3ncc(-c4cnn(C)c4)nc3n2)c1 [Compound 242] | ~8.11 | 2.24 | 7.35 | 7.22 | 5.49 | 1.86 | > 10000 | 1.17 | > 10000
9 | COc1cc(/N=c2\ccc3ncc(-c4cnn(C)c4)nc3n2CC2CCC(=O)N2)cc(OC)c1 (stereo not drawn) [Compound 248] | 6.67 | 8.13 | 6.70 | 6.25 | 5.76 | 1.82 | > 10000 | 5.13 | > 10000
10 | COc1cc(OC)c(F)c(N(Cc2n[nH]c(=O)o2)c2ccc3ncc(-c4cnn(C)c4)nc3n2)c1 [Compound 284] | 6.42 | 5.5 | 6.37 | 6.01 | <5 | 1.05 | > 10000 | 1.58 | > 10000
